Drawing on PubChem BioAssay AID1259407 (Chemical Carcinogenesis Research Information System (CCRIS), 2018), this text covers mutagenic call for five compounds.

The source made the active and inactive calls. The rule behind the calls is not given here.

The test system of the data set is CCRIS mutagenicity, Ames/micronucleus/aberration tests. The experiment in a line: CCRIS mutagenicity studies.
[1] abbreviates: Test System: AMES SALMONELLA TYPHIMURIUM, Strain/Indicator: TA100, Metabolic Activation: NONE, Method: STANDARD PLATE.
[2] abbreviates: Test System: AMES SALMONELLA TYPHIMURIUM, Strain/Indicator: TA98, Metabolic Activation: NONE, Method: PREINCUBATION
Setting [3] is: Test System: AMES SALMONELLA TYPHIMURIUM, Strain/Indicator: TA100, Metabolic Activation: NONE, Method: PREINCUBATION
Where [4] appears, read: Test System: AMES SALMONELLA TYPHIMURIUM, Strain/Indicator: TA1535, Metabolic Activation: NONE, Method: PREINCUBATION
Where [5] appears, read: Test System: AMES SALMONELLA TYPHIMURIUM, Strain/Indicator: TA1538, Metabolic Activation: NONE, Method: PREINCUBATION

For the compound `Oc1ccc2cccnc2c1`, the mutagenic call under setting [1] was “inactive; negative” and the mutagenic call (Test System: AMES SALMONELLA TYPHIMURIUM, Strain/Indicator: TA100, Metabolic Activation: RAT, LIVER, S-9, AROCLOR 1254 (10% OR 20%), Method: STANDARD PLATE) is “inactive; negative”.

Take `Cc1c2ccccc2cc2ccc3c(c12)C=CC(=O)C3=O`: the mutagenic call was “inactive; negative” (Test System: AMES SALMONELLA TYPHIMURIUM, Strain/Indicator: TA97A, Metabolic Activation: NONE, Method: PREINCUBATION); “active; positive” under setting [2]; “inactive; negative” under setting [3]; “inactive; negative” (Test System: AMES SALMONELLA TYPHIMURIUM, Strain/Indicator: TA102, Metabolic Activation: NONE, Method: PREINCUBATION); “inactive; negative” (Test System: AMES SALMONELLA TYPHIMURIUM, Strain/Indicator: TA104, Metabolic Activation: NONE, Method: PREINCUBATION).

Regarding `C=CCc1ccc(O)cc1`, the mutagenic call was “inactive; negative” (Test System: AMES SALMONELLA TYPHIMURIUM, Strain/Indicator: TA98, Metabolic Activation: HAMSTER, LIVER, S-9, AROCLOR 1254, Method: STANDARD PLATE); “inactive; negative” (Test System: AMES SALMONELLA TYPHIMURIUM, Strain/Indicator: TA98, Metabolic Activation: NONE, Method: STANDARD PLATE); “inactive; negative” (Test System: AMES SALMONELLA TYPHIMURIUM, Strain/Indicator: TA98, Metabolic Activation: RAT, LIVER, S-9, AROCLOR 1254, Method: STANDARD PLATE); “inactive; negative” (Test System: AMES SALMONELLA TYPHIMURIUM, Strain/Indicator: TA100, Metabolic Activation: HAMSTER, LIVER, S-9, AROCLOR 1254, Method: STANDARD PLATE); “inactive; negative” under setting [1]; “inactive; negative” (Test System: AMES SALMONELLA TYPHIMURIUM, Strain/Indicator: TA100, Metabolic Activation: RAT, LIVER, S-9, AROCLOR 1254, Method: STANDARD PLATE). Also, the mutagenic call runs as follows: (Test System: AMES SALMONELLA TYPHIMURIUM, Strain/Indicator: TA1535, Metabolic Activation: HAMSTER, LIVER, S-9, AROCLOR 1254, Method: STANDARD PLATE) “inactive; negative”; (Test System: AMES SALMONELLA TYPHIMURIUM, Strain/Indicator: TA1535, Metabolic Activation: NONE, Method: STANDARD PLATE) “inactive; negative”; (Test System: AMES SALMONELLA TYPHIMURIUM, Strain/Indicator: TA1535, Metabolic Activation: RAT, LIVER, S-9, AROCLOR 1254, Method: STANDARD PLATE) “inactive; negative”; (Test System: AMES SALMONELLA TYPHIMURIUM, Strain/Indicator: TA1537, Metabolic Activation: HAMSTER, LIVER, S-9, AROCLOR 1254, Method: STANDARD PLATE) “inactive; negative”; (Test System: AMES SALMONELLA TYPHIMURIUM, Strain/Indicator: TA1537, Metabolic Activation: NONE, Method: STANDARD PLATE) “inactive; negative”; (Test System: AMES SALMONELLA TYPHIMURIUM, Strain/Indicator: TA1537, Metabolic Activation: RAT, LIVER, S-9, AROCLOR 1254, Method: STANDARD PLATE) “inactive; negative”. Moreover, the mutagenic call is “inactive; negative” (Test System: AMES SALMONELLA TYPHIMURIUM, Strain/Indicator: TA1538, Metabolic Activation: HAMSTER, LIVER, S-9, AROCLOR 1254, Method: STANDARD PLATE); “inactive; negative” (Test System: AMES SALMONELLA TYPHIMURIUM, Strain/Indicator: TA1538, Metabolic Activation: NONE, Method: STANDARD PLATE); “inactive; negative” (Test System: AMES SALMONELLA TYPHIMURIUM, Strain/Indicator: TA1538, Metabolic Activation: RAT, LIVER, S-9, AROCLOR 1254, Method: STANDARD PLATE); “inactive; negative. reevaluation of results: negative” (Test System: MOUSE LYMPHOMA, Strain/Indicator: L5178Y (TK+/TK-), Metabolic Activation: NONE, Method: SUSPENSION/PLATE); “inactive; negative. reevaluation of results: negative” (Test System: MOUSE LYMPHOMA, Strain/Indicator: L5178Y (TK+/TK-), Metabolic Activation: RAT, LIVER, S-9, AROCLOR 1254, Method: SUSPENSION/PLATE).

On to `CCCC(=O)Nc1ncnc2c1ncn2[C@@H]1O[C@@H]2COP(=O)(O)O[C@H]2[C@H]1OC(=O)CCC`, for which the mutagenic call is “inactive; negative” under setting [2]; “inactive; negative” (Test System: AMES SALMONELLA TYPHIMURIUM, Strain/Indicator: TA98, Metabolic Activation: RAT, LIVER, S-9, KC-500, Method: PREINCUBATION); “inactive; negative” under setting [3]; “inactive; negative” (Test System: AMES SALMONELLA TYPHIMURIUM, Strain/Indicator: TA100, Metabolic Activation: RAT, LIVER, S-9, KC-500, Method: PREINCUBATION); “inactive; negative” under setting [4]; “inactive; negative” (Test System: AMES SALMONELLA TYPHIMURIUM, Strain/Indicator: TA1535, Metabolic Activation: RAT, LIVER, S-9, KC-500, Method: PREINCUBATION). For the same compound, the mutagenic call by setting is: (Test System: AMES SALMONELLA TYPHIMURIUM, Strain/Indicator: TA1537, Metabolic Activation: NONE, Method: PREINCUBATION) “inactive; negative”; (Test System: AMES SALMONELLA TYPHIMURIUM, Strain/Indicator: TA1537, Metabolic Activation: RAT, LIVER, S-9, KC-500, Method: PREINCUBATION) “inactive; negative”; under setting [5], “inactive; negative”; (Test System: AMES SALMONELLA TYPHIMURIUM, Strain/Indicator: TA1538, Metabolic Activation: RAT, LIVER, S-9, KC-500, Method: PREINCUBATION) “inactive; negative”; (Test System: E. COLI, Strain/Indicator: WP2 UVRA, Metabolic Activation: NONE, Method: PREINCUBATION) “inactive; negative”; (Test System: E. COLI, Strain/Indicator: WP2 UVRA, Metabolic Activation: RAT, LIVER, S-9, KC-500, Method: PREINCUBATION) “inactive; negative”.

With `CC(C)(Cl)[N+](=O)[O-]`, the mutagenic call reads like this: (Test System: AMES SALMONELLA TYPHIMURIUM, Strain/Indicator: TA98, Metabolic Activation: HAMSTER, LIVER, S-9, AROCLOR 1254 (30%), Method: PREINCUBATION) “inactive; negative”; under setting [2], “inactive; negative”; (Test System: AMES SALMONELLA TYPHIMURIUM, Strain/Indicator: TA98, Metabolic Activation: RAT, LIVER, S-9, AROCLOR 1254 (30%), Method: PREINCUBATION) “inactive; negative”; (Test System: AMES SALMONELLA TYPHIMURIUM, Strain/Indicator: TA100, Metabolic Activation: HAMSTER, LIVER, S-9, AROCLOR 1254 (30%), Method: PREINCUBATION) “inactive; negative”; under setting [3], “active; positive”; (Test System: AMES SALMONELLA TYPHIMURIUM, Strain/Indicator: TA100, Metabolic Activation: RAT, LIVER, S-9, AROCLOR 1254 (30%), Method: PREINCUBATION) “inactive; negative”. Besides, the mutagenic call was “inactive; negative” (Test System: AMES SALMONELLA TYPHIMURIUM, Strain/Indicator: TA1535, Metabolic Activation: HAMSTER, LIVER, S-9, AROCLOR 1254 (30%), Method: PREINCUBATION); “inactive; negative” under setting [4]; “inactive; negative” (Test System: AMES SALMONELLA TYPHIMURIUM, Strain/Indicator: TA1535, Metabolic Activation: RAT, LIVER, S-9, AROCLOR 1254 (30%), Method: PREINCUBATION); “inactive; negative” (Test System: AMES SALMONELLA TYPHIMURIUM, Strain/Indicator: TA1538, Metabolic Activation: HAMSTER, LIVER, S-9, AROCLOR 1254 (30%), Method: PREINCUBATION); “inactive; negative” under setting [5]; “inactive; negative” (Test System: AMES SALMONELLA TYPHIMURIUM, Strain/Indicator: TA1538, Metabolic Activation: RAT, LIVER, S-9, AROCLOR 1254 (30%), Method: PREINCUBATION).
